This is an account of results in patent publication US10881614B2, “Nicotinamide compositions and the therapeutic use thereof” (APeT Holding B.V., priority 2011, dated 2021).

The test system of assay [1] is patients with epilepsy, behavioral and nutritional abnormalities. As to the kind of experiment: Clinical observations under oral nicotinamide therapy. It counts as in vivo, human.
Assay [2] deals with subjects suspected to suffer from tryptophan malabsorption. The conditions noted are these: 20 mg/kg/day in six doses, three subjects; cited from earlier work.

Consider `NC(=O)c1cccnc1` [nicotinamide, pyridine-3-carboxamide], for which, in assay [1] (nicotinamide therapy), the “indican in plasma and urine” value was “normalization”. In addition, in assay [1] (oral nicotinamide), the “behavioral, neurological and psychiatric abnormalities” value is “Remarkable improvement up to normalization”; the intestinal tryptophan absorption result was “stimulates intestinal tryptophan absorption”. The “clinical picture under nicotinamide therapy” value in assay [1] (patients with epilepsy, behavioral and nutritional abnormalities hardly improved by antiepileptic, antidepressant and other drugs) was “normalized in one or two months”. Moreover, in assay [2], the “effect on behavioral and psychiatric illnesses” value is “beneficial effect”.
